Results from US6676946B2 (priority 1997, dated 2004).
Entries after “also recorded” stand apart in the source; their conditions may differ.

Columns and labels:
[1] = test system: MLS128 mAb; format: binding, mouse
[2] = test system: MLS 128 (IgG) anti-Tn monoclonal antibody; format: binding, mouse
[3] = test system: human Jurkat tumor cell line; conditions: in vivo
[4] = test system: Tn3G6K(Biot)G glycopeptide; parameters: species or system BALB/c mice; conditions: mouse, in vivo
[5] = test system: T cell hybridoma 45G10 specific for PV; format: cell-based
[6] = test system: STTG6K(Biot)G peptide; parameters: species or system BALB/c mice; conditions: mouse, in vivo
[7] = test system: T cell hybridomas 45G10 (specific for 103-115 poliovirus peptide); format: cell-based
[8] = test system: Tn antigen (BT-TT1); parameters: species or system BALB/c mice; conditions: mouse, in vivo
[9] = test system: lymph node (LN) cells; parameters: species or system BALB/c mice; conditions: mouse, in vivo, sc

In the case of “STTGGGGGGKG [STTG6KG, reference compound]”, the “competition with a-OSM for MLS 128 binding” value [1] is reported as “does not”.
For S*T*T*QYIKANSKIGITEL [Tn3-TT], the “recognition of the Tn motif by the MLS 128 mAb, direct ELISA” value (from here on “recognition of the Tn motif”) [2] was “efficiently recognized” and the “inhibition of MLS128 binding to Tn3G6K(Biot)G” value [1] was “only slightly affected”.
(S*T*T*G)2KLFAVWKITYKDT [Tn6-PV] was tested, and the “recognition of the Tn motif” value [2] was “efficiently recognized”, the “binding of sera to Jurkat cells” value [3] was “bound this human cell line” and the “recognition of Jurkat cells / antibody production relative to Tn3-PV” value [3] was “better; also recorded: significant benefit”. For the same substance, the “anti-Tn IgG antibodies” value [4] was “induced anti-Tn IgG antibodies”, the “anti-Tn IgM antibodies” value [4] was “detected” and the “increase of antigenicity of the T cell epitope compared to unglycosylated PV peptide” value [5] was about 100 fold. For the same substance, the “stimulation of the 45G10 T cell hybrid” value [5] was “stimulate”, the “sera binding to unglycosylated STTG6K(Biot)G peptide” value [6] was “No sera binding was observed” and the “inhibition of MLS128 binding to Tn3G6K(Biot)G” value [1] was “significant enhancement of the antigenicity”.
With αGalNac-Ser [B] the “stimulation of IL-2 production by the T hybridoma” value [7] was “do not stimulate”.
With KLFAVWKITYKDT [PV, reference compound] the “recognition of the Tn motif” value [2] was “are not”, the “recognition by PV-specific T-cell hybridoma” value [7] was “recognize” and the “anti-Tn IgG antibodies” value [4] was “no Tn specific antibodies were detected”. The “induction of anti-Tn antibodies” value [8] was “not”, the “stimulation of the 45G10 T cell hybrid” value [5] was “stimulate” and the “sera binding to unglycosylated STTG6K(Biot)G peptide” value [6] was “No sera binding was observed”. The “proliferative T response specific for the T epitope” value [9] was “induce in vivo a proliferative T response”.
